Measured values reported in patent publication US20230039836A1, “AROMATIC SULPHONAMIDES DERIVATIVES THAT INHIBITS PDI A3, THEIR SYNTHESIS AND USE” (Uniwersytet Jagiellonski, priority 2020, published 2023).
In brackets after ≈: the same amount, converted by molar mass. Several values for one entry are separate records, joined by “and”; a condition that tells them apart may be missing. Equal values may be shown once. Read-outs that look alike come from different tables or passages of the source.

Legend:
[1] = tested on: arterial thrombosis, right common carotid artery; assay: Rat model of arterial thrombosis; format: in vivo; conditions: Wistar rats, FIG. 6, dose as low as
Experimental: To confirm antithrombotic activity of compounds of invention, inhibitors of PDIA1, pharmacological activity of selected compounds was tested in vivo in the rat model of arterial thrombosis . Wistar rats were anaesthetized with pentobarbital (40 mg/kg, i.p.) and placed in a supine position on a heated (37° C.) operating table. Arterial thrombosis was induced by electrical stimulation of the right common carotid artery, as previously described (Kramkowski et al., 2012). Briefly, the anode, a stainless steel L-shaped wire, was inserted under the artery and connected to a constant current generator. The cathode was attached subcutaneously to the hind limb. The artery was stimulated (1 mA) for 10 min. Fifty-five minutes after the beginning of stimulation, the segment of the common carotid artery containing the formed thrombus was dissected and opened lengthwise, and the thrombus was completely removed and air-dried at room temperature for 24 h. Thrombus was then weighed in a blinded manner.

[2] = tested on: MDA-MB-231; assay: Sulforhodamine B antiproliferative assay, 72 h, normal and hypoxia; format: cell-based, human; conditions: Homo sapiens, MDA-MB-231, 72-hour exposition
Experimental: (§1) Anticancer activity of PDI A1-inhibitors has been also tested in vitro in antiproliferative essay in normoxic and hypoxic conditions as well in estrogen-stimulated cancer cells. In the experiment, cells were seeded on 96-well plates (Sarstedt, Germany) in appropriate culture medium at a density of 10^5 cells/mL 24 h before adding the tested compounds. Cells were treated with each compound in four concentrations in the range 0.1-100 ug/mL. […] After 72 h of compound treatment at 37° C., 5 % CO2 humid atmosphere and in wo different oxygen level conditions: 21% - normal and <1% - hypoxia. In some experiments, the MDA-MB-231 and MCF-7 cells were seeded with or without 200 nM estradiol and after 24 h the tested compounds were added. A previously described sulforhodamine B antiproliferative assay was used with minor modifications (Skehan P et al., 1990). Briefly, cells were fixed with 50 µL/well of 50% (w/v) trichloroacetic acid (Avantor Performance Materials, Gliwice, Poland). After 1 h incubation, plates were washed several times with tap water and 50 µL of 0.4% (w/v) solution of sulforhodamine B (Sigma-Aldrich, Germany) in 1% (v/v) acetic acid (Avantor Performance Materials, Gliwice, Poland) was added to each well. After 30 min incubation at room temperature, unbound dye was washed out with 1% (v/v) acetic acid, whereas bound dye was solubilized with 10 mM unbuffered TRIS (Avantor Performance Materials, Gliwice, Poland) solution. The entire procedure was performed using a BioTek EL-406 washing station (BioTek Instruments, USA). After additional 30 min, absorbance was read using a Biotek Hybrid H4 reader (BioTek Instruments, USA) at 540 nm wavelength. MTT assay was used alternatively for HL-60 cell line and in the experiment in which estrogens are added (specified in the table legend). Absorbance was measured using a Biotek Hybrid H4 reader at 570 nm wavelength for MTT assay.
(§2) Compounds at each concentration were tested in triplicate in a single experiment and each experiment was repeated at least three times independently.
(§3) Results of in vitro antiproliferative effects are shown in Table 3 and Table 4 and are presented as mean IC50 ± SD calculated using the Prolab-3 system based on Cheburator 0.4 software.

[3] = tested on: MCF-7; assay: as above; format: cell-based, human; conditions: Homo sapiens, MCF7, 72-hour exposition
Experimental: as §1, §2, §3

[4] = tested on: Caco-2; assay: Sulforhodamine B antiproliferative assay, 72 h; format: cell-based, human; conditions: Homo sapiens, Caco-2; normal (21% of oxygen), 72-hour exposition
Experimental: In the experiment, cells were seeded on 96-well plates (Sarstedt, Germany) in appropriate culture medium at a density of 10^5 cells/mL 24 h before adding the tested compounds. Cells were treated with each compound in four concentrations in the range 0.1-100 ug/mL. […] Briefly, cells were fixed with 50 µL/well of 50% (w/v) trichloroacetic acid (Avantor Performance Materials, Gliwice, Poland). After 1 h incubation, plates were washed several times with tap water and 50 µL of 0.4% (w/v) solution of sulforhodamine B (Sigma-Aldrich, Germany) in 1% (v/v) acetic acid (Avantor Performance Materials, Gliwice, Poland) was added to each well. After 30 min incubation at room temperature, unbound dye was washed out with 1% (v/v) acetic acid, whereas bound dye was solubilized with 10 mM unbuffered TRIS (Avantor Performance Materials, Gliwice, Poland) solution. […] After additional 30 min, absorbance was read using a Biotek Hybrid H4 reader (BioTek Instruments, USA) at 540 nm wavelength.

[5] = tested on: HT-29; assay: Sulforhodamine B antiproliferative assay, 72 h; format: cell-based, human; conditions: Homo sapiens, HT-29; normal (21% of oxygen), 72-hour exposition
Experimental: as §1, §2, §3

[6] = tested on: Lewis Lung Carcinoma (LLC); assay: Murine model of Lewis Lung Carcinoma; format: in vivo, mice; conditions: for Tumor volume average±stdev, day 10 / Tumor volume average±stdev, day 12 / Tumor volume average±stdev, day 14 / Tumor volume average±stdev, day 16 / Tumor volume average±stdev, day 17 / Individual tumor volumes, day 10 / Individual tumor volumes, day 12 / Individual tumor volumes, day 14 / Individual tumor volumes, day 16 / Individual tumor volumes, day 17: C57BL/6 mice, LLC s.c.; for Tumor volume average±stdev, day 10 / Tumor volume average±stdev, day 12 / Tumor volume average±stdev, day 14 / Tumor volume average±stdev, day 16 / Tumor volume average±stdev, day 17: 5 animals; for Individual tumor volumes, day 10 / Individual tumor volumes, day 12 / Individual tumor volumes, day 14 / Individual tumor volumes, day 16 / Individual tumor volumes, day 17: single animals; for Anti-cancer activity in vivo: LLC model, Tables 6 and 7
Experimental: To confirm anticancer activity of selected compounds of invention, PDI A1-inhibitors in vivo, selected compounds of invention were tested in the murine model of Lewis Lung Carcinoma (LLC). The Lewis Lung Carcinoma (LLC) cell line was obtained from the ATCC collection and was cultured in a humidified atmosphere of 5% CO2 at 37° using Dulbecco’s modified Eagle’s medium (DMEM) that contained 10% bovine serum (Sigma). Female (6-8 weeks old) C57BL/6 mice (purchased from Envigo RMS. BV., Nederland) were acclimated for one week and were fed with animal chow and water ad libitum. The C57BL/6 mice were injected s.c. with 0.5 × 10^5 LLC cells per mice in 100 µL PBS. Compounds were dissolved in DMSO and then 0.9% NaCl (DMSO final concentration 1%) were added. In each treatment group, i.p. injections of 100 µl compound were started on 1 day after tumor inoculation. Control animals injected with equal volume of 0.9% NaCl with 1% DMSO administered in the same schedule as other groups. Tumor larger radius (a) and smaller radius (b) were measured by calipers. The tumor volume (Tv) was calculated according the following formulaTv = V=4 • ab2/3. The mice in control group were sacrificed 17 days after tumor establishment. Tumor tissues were dissected, weighed and frozen in OCT compound.

[7] = biological target: T1, PDI A1 (Homo sapiens, UniProt P07237); assay: Insulin turbidometric assay, inhibition of PDI A1; format: biochemical; conditions: insulin reduction, turbidity at 650 nm, 60 min incubation at 37° C.; read-out: Inhibition of PDI A1 (EC 50)
T1 construct: purchased Mybiosource; host or cells: E. coli
How it was run: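 E. coli-expressed recombinant PDIA1 (10 ug/ml) preincubated with compound 60 min at 37 °C in phosphate buffer pH 7.6, 1 mM EDTA, DTT. Reaction started with insulin (0.15 mM final) and DTT (0.174 mM final). Insulin-reduction turbidity recorded at 650 nm over 120 s against PDI-free reference.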

[8] = hypoxia (<1% of oxygen), read-out: IC50 [µg/ml] MDA-MB-231 hypoxia
[9] = normal (21% of oxygen), read-out: IC50 [µg/ml] MDA-MB-231 normal
[10] = hypoxia (<1% of oxygen), read-out: IC50 [µg/ml] MCF-7 hypoxia
[11] = normal (21% of oxygen), read-out: IC50 [µg/ml] MCF-7 normal

T1 sequence (P07237 18-508, species assumed): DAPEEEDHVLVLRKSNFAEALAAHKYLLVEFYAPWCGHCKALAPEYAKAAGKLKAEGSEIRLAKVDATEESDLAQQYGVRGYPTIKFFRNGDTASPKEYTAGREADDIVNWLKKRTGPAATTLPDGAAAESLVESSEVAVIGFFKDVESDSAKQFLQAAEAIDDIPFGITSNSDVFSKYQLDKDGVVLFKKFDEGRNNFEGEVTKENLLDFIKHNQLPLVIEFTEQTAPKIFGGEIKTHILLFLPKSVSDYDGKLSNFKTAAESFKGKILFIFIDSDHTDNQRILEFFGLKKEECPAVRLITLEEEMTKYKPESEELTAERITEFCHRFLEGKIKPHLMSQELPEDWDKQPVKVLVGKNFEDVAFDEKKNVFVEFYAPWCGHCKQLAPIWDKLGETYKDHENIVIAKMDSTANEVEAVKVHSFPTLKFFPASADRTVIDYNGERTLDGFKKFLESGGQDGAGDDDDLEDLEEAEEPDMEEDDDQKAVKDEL

## CCCCc1ccc(S(=O)(=O)N2CC2C(=O)OC)cc1 (stereo not drawn) [Compound C-3257, Methyl 1-(4-butylphenyl)sulfonylaziridine-2-carboxylate]
[1]
  Dose at which effect on thrombus formation was significant and pronounced: 0.03 µmol/kg
[2]; [8]
  IC50: 13.5 ± 4 µg/mL (≈ 45.4 µM)
[2]; [9]
  IC50: 9.9 ± 2.8 µg/mL (≈ 33.3 µM)
[3]; [10]
  IC50: 17.1 ± 7.4 µg/mL (≈ 57.5 µM)
[3]; [11]
  IC50: 20.8 ± 6.6 µg/mL (≈ 69.9 µM)
[4]
  IC50: 9.8 ± 3.8 µg/mL (≈ 33 µM)
[5]
  IC50: 23.8 ± 4.8 µg/mL (≈ 80 µM)
[6]; 75 mg/kg i.p.
  Tumor volume average±stdev, day 10: 66±147 mm3
  Tumor volume average±stdev, day 12: 208±287 mm3
  Tumor volume average±stdev, day 14: 462±264 mm3
  Tumor volume average±stdev, day 16: 686±108 mm3
  Tumor volume average±stdev, day 17: 1097±482 mm3
[6]; 75 mg/kg i.p., 75 mg/kg
  Individual tumor volumes, day 10: 0 mm3 (4×) and 329 mm3
  Individual tumor volumes, day 12: 572 mm3 and 0 mm3 (3×) and 468 mm3
  Individual tumor volumes, day 14: 594 mm3 and 0 mm3 and 537 mm3 and 657 mm3 and 523 mm3
  Individual tumor volumes, day 16: 794 mm3 and 548 mm3 and 601 mm3 and 772 mm3 and 717 mm3
  Individual tumor volumes, day 17: 674 mm3 and 882 mm3 and 1016 mm3 (2×) and 986 mm3
[6]
  Anti-cancer activity in vivo: possess anti-cancer activity in vivo

## COC(=O)C1CN1S(=O)(=O)c1ccc(C)cc1 (stereo not drawn) [Compound C-3161, Methyl 1-(p-tolylsulfonyl)aziridine-2-carboxylate]
[2]; [8]
  IC50: 11.3 ± 10.6 µg/mL (≈ 44.3 µM)
[2]; [9]
  IC50: 9.9 ± 8.2 µg/mL (≈ 38.8 µM)
[3]; [10]
  IC50: 3.6 ± 0.3 µg/mL (≈ 14.1 µM)
[3]; [11]
  IC50: 3.6 ± 0.3 µg/mL (≈ 14.1 µM)
[4]
  IC50: 3.5 ± 0.3 µg/mL (≈ 13.7 µM)
[5]
  IC50: 28.4 ± 5 µg/mL (≈ 111 µM)
[6]; 50 mg/kg i.p.
  Tumor volume average±stdev, day 10: 105±144 mm3
  Tumor volume average±stdev, day 12: 172±240 mm3
  Tumor volume average±stdev, day 14: 345±377 mm3
  Tumor volume average±stdev, day 16: 380±446 mm3
  Tumor volume average±stdev, day 17: 368±393 mm3
[6]; 50 mg/kg i.p., 50 mg/kg
  Individual tumor volumes, day 10: 258 mm3 and 0 mm3 (3×) and 266 mm3
  Individual tumor volumes, day 12: 496 mm3 and 0 mm3 (3×) and 365 mm3
  Individual tumor volumes, day 14: 829 mm3 and 254 mm3 and 0 mm3 (2×) and 642 mm3
  Individual tumor volumes, day 16: 980 mm3 and 199 mm3 and 0 mm3 (2×) and 719 mm3
  Individual tumor volumes, day 17: 946 mm3 and 476 mm3 and 0 mm3 (2×) and 419 mm3
[6]
  Anti-cancer activity in vivo: possess anti-cancer activity in vivo
[7]
  EC50: 5 µM
